The structures appear in SMILES notation.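 Growth conditions: 96-well plates. Treatment: test compound, 48 hours, 5 concentrations. Analysis: linear interpolation between bracketing concentrations; unreached endpoints set to highest concentration. The concentration for 50% growth inhibition is given as GI50.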 Calls of active or inactive are those of the source. No stated cut-off is given here; in the data, active = GI50 up to about 1.1 µM and inactive = higher. Bounds are passed on as bounds.

This note sets out measurements from ChEMBL document CHEMBL1201862, “PubChem BioAssay data set” (2004).

Test systems include SF-539; NCI-H460; SNB-75; MDA-MB-435; M14; SK-MEL-28; SR; SK-MEL-2; HCC 2998; MOLT-4; UO-31; UACC-257; MDA-MB-231; HCT-15; SF-295; SNB-19; CAKI-1.
Holding throughout (test): NCI-60 cell line screen, 48 h

Take `COc1ccc2c3c1OC1C(OC)(OC)C=C[C@@]4(Br)[C@@H](C2)N(CC2CC2)CC[C@]314` (stereo partly specified): the GI50 in the assay with SF-539 was > 100 µM (inactive); with NCI-H460 it was 62.7 µM (inactive); with SNB-75, 96.4 µM (inactive); in the assay with MDA-MB-435 it was 61.2 µM (inactive); with M14, 27.1 µM (inactive); in the assay with SK-MEL-28, > 100 µM (inactive). Moreover, the GI50 in the assay on SR is > 100 µM (inactive); in the assay with SK-MEL-2, 38.5 µM (inactive); in the assay with HCC 2998, > 100 µM (inactive); with MOLT-4, 80.7 µM (inactive); in the assay on UO-31, 35.2 µM (inactive); in the assay on UACC-257, 69.8 µM (inactive). Further, the GI50 is 45.6 µM (inactive) in the assay with MDA-MB-231; greater than 100 µM in the assay with HCT-15; > 100 µM (inactive) in the assay with SF-295; > 100 µM (inactive) in the assay on SNB-19; 59 µM (inactive) in the assay on CAKI-1.
For `Oc1ccc(O)c(CNc2ccccc2)c1`, the GI50 was 3.46 µM (inactive) in the assay on SF-539; 20.8 µM (inactive) in the assay on NCI-H460; 33.5 µM (inactive) in the assay with SNB-75; 8.81 µM (inactive) in the assay with MDA-MB-435; 15.7 µM (inactive) in the assay on M14; 33 µM (inactive) with SK-MEL-28. The GI50 in the assay on SR is 2.29 µM (inactive); in the assay with SK-MEL-2, 24.2 µM (inactive); in the assay on HCC 2998, 26.2 µM (inactive); in the assay on MOLT-4, 2.26 µM (inactive); in the assay with UO-31, 10.7 µM (inactive); in the assay on UACC-257, 16.9 µM (inactive). Further, the GI50 in the assay with MDA-MB-231 was 17.7 µM (inactive); in the assay with HCT-15 it was 10.3 µM; with SF-295, 12.1 µM (inactive); in the assay on SNB-19, 19.5 µM (inactive); in the assay on CAKI-1, 6.89 µM (inactive).
Regarding `O=[N+]([O-])c1cccc2nccc(NCCCO)c12`, the GI50 is 14.5 µM (inactive) with SF-539; 11 µM (inactive) in the assay with NCI-H460; 24.3 µM (inactive) with SNB-75; 11.7 µM (inactive) in the assay with MDA-MB-435; 12.9 µM (inactive) with M14; 12.4 µM (inactive) with SK-MEL-28. The GI50 in the assay on SR was 7.66 µM (inactive); with SK-MEL-2, 4.38 µM (inactive); with HCC 2998, 13.2 µM (inactive); in the assay with MOLT-4, 13.9 µM (inactive); in the assay on UO-31, 16 µM (inactive); in the assay with UACC-257, 11.4 µM (inactive). In addition, the GI50 in the assay on MDA-MB-231 is 23 µM (inactive); with HCT-15 it was 8.11 µM; with SF-295, 15.5 µM (inactive); in the assay on SNB-19, 25.1 µM (inactive); in the assay with CAKI-1 it was 13.8 µM (inactive).
With `CN1CCN([C@H]2C[C@H]3[C@@H]4CC=C5C[C@@H](O)CC[C@]5(C)[C@H]4CC[C@]3(C)[C@H]2O)CC1`, the GI50 in the assay on SF-539 was 26.2 µM (inactive); in the assay with NCI-H460 it was > 42.7 µM (inactive); in the assay on SNB-75 it was > 49.2 µM (inactive); with MDA-MB-435 it was 16.9 µM (inactive); in the assay on M14, 17.5 µM (inactive); in the assay with SK-MEL-28 it was 27.4 µM (inactive). Also, the GI50 with SR is 25.8 µM (inactive); with SK-MEL-2 it was > 83.9 µM (inactive); in the assay with HCC 2998, 44.2 µM (inactive); with MOLT-4 it was 49.7 µM (inactive); in the assay with UO-31 it was > 100 µM (inactive); in the assay with UACC-257, > 49 µM (inactive). Moreover, the GI50 is > 48.3 µM (inactive) in the assay with MDA-MB-231; greater than 42.3 µM in the assay on HCT-15; > 78.3 µM (inactive) in the assay on SF-295; > 45.5 µM (inactive) in the assay on SNB-19; > 100 µM (inactive) with CAKI-1.
Consider `COc1cc([C@@H]2c3cc4c(cc3[C@H](OC3OC5COC(C(C)C)OC5C(O)C3O)C3COC(=O)[C@@H]32)OCO4)cc(OC)c1OC` (stereo partly specified), for which the GI50 was 3.6 µM (inactive) in the assay with SF-539; 2.34 µM (inactive) with NCI-H460; 11.6 µM (inactive) with SNB-75; 4.37 µM (inactive) with MDA-MB-435; 5.24 µM (inactive) with M14; > 100 µM (inactive) with SK-MEL-28. The GI50 in the assay on SR was 2.11 µM (inactive); with SK-MEL-2, 8.36 µM (inactive); in the assay on HCC 2998, 5.16 µM (inactive); with MOLT-4, 4.84 µM (inactive); in the assay on UO-31, 11.1 µM (inactive); in the assay on UACC-257, 5.01 µM (inactive). In addition, the GI50 in the assay with MDA-MB-231 was 5.77 µM (inactive); with HCT-15 it was 4.49 µM; in the assay with SF-295, 3.47 µM (inactive); in the assay with SNB-19 it was 6.19 µM (inactive); with CAKI-1, 4.15 µM (inactive).
Turning to `CCCC(=O)Nc1cc(C(=O)N2C[C@H]3C[C@@]34C2=CC(=O)c2[nH]cc(C)c24)n(COC)c1`, the GI50 in the assay on SF-539 is 0.177 µM (active); in the assay with NCI-H460 it was 0.317 µM (active); in the assay on SNB-75, 0.248 µM (active); with MDA-MB-435 it was 0.19 µM (active); in the assay on M14, 0.662 µM (active); with SK-MEL-28, 0.208 µM (active). The GI50 was 0.00516 µM (active) in the assay with SR; 0.293 µM (active) in the assay with SK-MEL-2; 0.122 µM (active) with HCC 2998; 0.00879 µM (active) in the assay with MOLT-4; 0.843 µM (active) in the assay with UO-31; 0.171 µM (active) in the assay with UACC-257. Moreover, the GI50 was 0.281 µM (active) with MDA-MB-231; 1.31 µM in the assay on HCT-15; 0.735 µM (active) with SF-295; 0.498 µM (active) with SNB-19; 0.215 µM (active) in the assay on CAKI-1.
As for `O=Cc1c2ccccc2n2ccc3c4ccccc4[nH]c3c12`, the GI50 with SF-539 was > 10 µM (inactive); in the assay on NCI-H460 it was > 10 µM (inactive); in the assay on SNB-75 it was > 10 µM (inactive); in the assay with MDA-MB-435 it was > 10 µM (inactive); in the assay on M14, > 10 µM (inactive); with SR it was 8.77 µM (inactive). The GI50 with SK-MEL-2, in the assay on HCC 2998, with MOLT-4, in the assay on UO-31, in the assay with UACC-257 and in the assay with MDA-MB-231 was > 10 µM (inactive) in each case. The GI50 was greater than 10 µM in the assay on HCT-15, > 10 µM (inactive) in the assay with SF-295, > 10 µM (inactive) in the assay on SNB-19 and > 10 µM (inactive) with CAKI-1.
As to `O=C(Cn1cc(F)c(=O)[nH]c1=O)C12CC3CC(CC(C3)C1)C2`, the GI50 in the assay with SF-539, in the assay on NCI-H460, in the assay on SNB-75, in the assay on MDA-MB-435, in the assay on M14 and in the assay with SK-MEL-28 was > 100 µM (inactive) throughout. For the same compound, the GI50 with SR, with SK-MEL-2, in the assay on HCC 2998, in the assay with MOLT-4, in the assay on UO-31 and in the assay with UACC-257 was > 100 µM (inactive) in each case. The GI50 with MDA-MB-231 is > 100 µM (inactive); in the assay on HCT-15, greater than 100 µM; with SF-295 it was > 100 µM (inactive); in the assay on SNB-19, > 100 µM (inactive); in the assay on CAKI-1, > 100 µM (inactive).
Turning to `COc1ccc(-c2nc(-c3cc4ccccc4oc3=O)cs2)cc1`, the GI50 in the assay with SF-539 was 30.9 µM (inactive); in the assay with NCI-H460, 59.2 µM (inactive); with SNB-75, 52.2 µM (inactive); with MDA-MB-435 it was > 100 µM (inactive); in the assay with M14, > 100 µM (inactive); in the assay with SK-MEL-28, > 100 µM (inactive). The GI50 was > 100 µM (inactive) with SR; > 100 µM (inactive) in the assay on SK-MEL-2; 77.8 µM (inactive) with HCC 2998; > 100 µM (inactive) in the assay on MOLT-4; 35.7 µM (inactive) in the assay on UO-31; > 100 µM (inactive) in the assay with UACC-257. Moreover, the GI50 was 20.9 µM (inactive) with MDA-MB-231; greater than 100 µM in the assay on HCT-15; > 100 µM (inactive) in the assay on SF-295; 30.1 µM (inactive) in the assay on SNB-19; > 100 µM (inactive) in the assay on CAKI-1.
Turning to `[O-][Cl+3]([O-])([O-])O.c1ccc(C2=NN2c2ccccc2)cc1`, the GI50 was 76.2 µM (inactive) in the assay with SF-539; 71.8 µM (inactive) in the assay with NCI-H460; > 100 µM (inactive) in the assay with SNB-75; 2.83 µM (inactive) in the assay on MDA-MB-435; 9.82 µM (inactive) with M14; > 100 µM (inactive) in the assay on SK-MEL-28. The GI50 was 26.7 µM (inactive) in the assay with SR; > 100 µM (inactive) in the assay on SK-MEL-2; 6.28 µM (inactive) in the assay on HCC 2998; 3.73 µM (inactive) in the assay with MOLT-4; 15.9 µM (inactive) in the assay on UO-31; 59.6 µM (inactive) with UACC-257. Also, the GI50 in the assay on MDA-MB-231 is > 100 µM (inactive); in the assay with HCT-15, 7.89 µM; with SF-295, > 100 µM (inactive); in the assay with SNB-19 it was > 100 µM (inactive); with CAKI-1, > 100 µM (inactive).
`C=C(Cl)C(Cl)(CBr)CCC(Cl)C(C)C` (stereo unspecified): the GI50 in the assay on SF-539 is 1.3 µM (inactive); in the assay on NCI-H460, 1.98 µM (inactive); in the assay on SNB-75, 0.323 µM (active); in the assay on MDA-MB-435, 6.98 µM (inactive); in the assay on M14, 22.2 µM (inactive); with SK-MEL-28, 1.87 µM (inactive). Also, the GI50 was > 36.6 µM (inactive) in the assay on SR; 0.619 µM (active) in the assay with SK-MEL-2; 4.22 µM (inactive) in the assay on HCC 2998; > 39.9 µM (inactive) in the assay with MOLT-4; 2.94 µM (inactive) in the assay with UO-31; 1.37 µM (inactive) in the assay with UACC-257. The GI50 is 3.95 µM (inactive) in the assay on MDA-MB-231; 5.46 µM with HCT-15; 2.22 µM (inactive) with SF-295; 4.04 µM (inactive) with SNB-19; 1.77 µM (inactive) in the assay with CAKI-1.
As for `Cc1ccc(NC(=O)/C=C/c2ccccc2)c(C)c1`, the GI50 with SF-539 was > 100 µM (inactive); in the assay with NCI-H460, > 100 µM (inactive); in the assay with SNB-75, 24.9 µM (inactive); with MDA-MB-435 it was > 100 µM (inactive); in the assay with M14, > 100 µM (inactive); in the assay with SK-MEL-28, > 100 µM (inactive). Also, the GI50 in the assay with SR is > 100 µM (inactive); in the assay with SK-MEL-2, > 100 µM (inactive); with HCC 2998 it was > 100 µM (inactive); with MOLT-4, > 100 µM (inactive); with UACC-257, > 100 µM (inactive); in the assay with MDA-MB-231, 52.1 µM (inactive). Further, the GI50 in the assay with HCT-15 is greater than 100 µM; with SNB-19, > 100 µM (inactive); in the assay with CAKI-1, > 100 µM (inactive).
